How the values were obtained:
Assay in all cases: relative viability (nuclei count vs DMSO), 5 days (fraction); higher = more cells survive
201T = test system: 201T
Summary of the method: (§1)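 Each reported value is a median over duplicate plates. It expresses relative viability: treated-well nuclei count divided by vehicle-well nuclei count. Lung cancer cell lines in 1536-well plates were dosed by pin tool a day after seeding, alone with one drug or with a fixed anchor-drug dose plus five library-drug doses (not always all listed) in √10 steps, and nuclei were counted after 5 days.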

BEN = test system: BEN
Summary of the method: as §1

EPLC-272H = test system: EPLC-272H
Summary of the method: as §1

HCC-15 = test system: HCC-15
Summary of the method: as §1

HCC-78 = test system: HCC-78
Summary of the method: as §1

LCLC-97TM1 = test system: LCLC-97TM1
Summary of the method: as §1

LU99A = test system: LU99A
Summary of the method: as §1

NCI-H1355 = test system: NCI-H1355
Summary of the method: as §1

NCI-H1395 = test system: NCI-H1395
Summary of the method: as §1

NCI-H2009 = test system: NCI-H2009
Summary of the method: as §1

NCI-H2085 = test system: NCI-H2085
Summary of the method: as §1

NCI-H2126 = test system: NCI-H2126
Summary of the method: as §1

NCI-H2228 = test system: NCI-H2228
Summary of the method: as §1

NCI-H2342 = test system: NCI-H2342
Summary of the method: as §1

NCI-H23 = test system: NCI-H23
Summary of the method: as §1

NCI-H2405 = test system: NCI-H2405
Summary of the method: as §1

NCI-H322M = test system: NCI-H322M
Summary of the method: as §1

NCI-H460 = test system: NCI-H460
Summary of the method: as §1

NCI-H647 = test system: NCI-H647
Summary of the method: as §1

NCI-H650 = test system: NCI-H650
Summary of the method: as §1

NCI-H661 = test system: NCI-H661
Summary of the method: as §1

NCI-H838 = test system: NCI-H838
Summary of the method: as §1

PC-14 = test system: PC-14
Summary of the method: as §1

CCNC(=O)c1noc(-c2cc(C(C)C)c(O)cc2O)c1-c1ccc(CN2CCOCC2)cc1 [Luminespib] + COc1cccc2cc(-c3nc([C@H]4CC[C@H](C(=O)O)CC4)n4ncnc(N)c34)[nH]c12 [OSI-027] (partner 0.5 µM)
relative viability (201T; first compound 0.002 µM): 0.756 | relative viability (201T; first compound 0.02 µM): 0.668 | relative viability (201T; first compound 0.06325 µM): 0.492 | relative viability (201T; first compound 0.2 µM): 0.159 | relative viability (BEN; first compound 0.002 µM): 0.288 | relative viability (BEN; first compound 0.006325 µM): 0.292 | relative viability (BEN; first compound 0.02 µM): 0.316 | relative viability (BEN; first compound 0.06325 µM): 0.212 | relative viability (BEN; first compound 0.2 µM): 0.183 | relative viability (EPLC-272H; first compound 0.002 µM): 0.261 | relative viability (EPLC-272H; first compound 0.006325 µM): 0.26 | relative viability (EPLC-272H; first compound 0.06325 µM): 0.27 | relative viability (EPLC-272H; first compound 0.2 µM): 0.122 | relative viability (HCC-15; first compound 0.002 µM): 0.686 | relative viability (HCC-15; first compound 0.006325 µM): 0.644 | relative viability (HCC-15; first compound 0.02 µM): 0.556 | relative viability (HCC-15; first compound 0.06325 µM): 0.0983 | relative viability (HCC-15; first compound 0.2 µM): 0.0973 | relative viability (HCC-78; first compound 0.002 µM): 0.361 | relative viability (HCC-78; first compound 0.006325 µM): 0.323 | relative viability (HCC-78; first compound 0.06325 µM): 0.412 | relative viability (HCC-78; first compound 0.2 µM): 0.301 | relative viability (LCLC-97TM1; first compound 0.002 µM): 0.543 | relative viability (LCLC-97TM1; first compound 0.006325 µM): 0.601 | relative viability (LCLC-97TM1; first compound 0.02 µM): 0.304 | relative viability (LCLC-97TM1; first compound 0.06325 µM): 0.492 | relative viability (LCLC-97TM1; first compound 0.2 µM): 0.114 | relative viability (LU99A; first compound 0.002 µM): 0.274 | relative viability (LU99A; first compound 0.006325 µM): 0.265 | relative viability (LU99A; first compound 0.02 µM): 0.265 | relative viability (LU99A; first compound 0.06325 µM): 0.154 | relative viability (LU99A; first compound 0.2 µM): 0.162 | relative viability (NCI-H1355; first compound 0.002 µM): 0.39 | relative viability (NCI-H1355; first compound 0.006325 µM): 0.377 | relative viability (NCI-H1355; first compound 0.02 µM): 0.277 | relative viability (NCI-H1355; first compound 0.06325 µM): 0.163 | relative viability (NCI-H1355; first compound 0.2 µM): 0.148 | relative viability (NCI-H1395; first compound 0.002 µM): 0.704 | relative viability (NCI-H1395; first compound 0.006325 µM): 0.632 | relative viability (NCI-H1395; first compound 0.02 µM): 0.512 | relative viability (NCI-H1395; first compound 0.06325 µM): 0.337 | relative viability (NCI-H1395; first compound 0.2 µM): 0.321 | relative viability (NCI-H2009; first compound 0.002 µM): 0.773 | relative viability (NCI-H2009; first compound 0.006325 µM): 0.534 | relative viability (NCI-H2009; first compound 0.02 µM): 0.518 | relative viability (NCI-H2009; first compound 0.06325 µM): 0.0609 | relative viability (NCI-H2009; first compound 0.2 µM): 0.0769 | relative viability (NCI-H2085; first compound 0.002 µM): 0.793 | relative viability (NCI-H2085; first compound 0.006325 µM): 0.779 | relative viability (NCI-H2085; first compound 0.02 µM): 0.395 | relative viability (NCI-H2085; first compound 0.06325 µM): 0.242 | relative viability (NCI-H2085; first compound 0.2 µM): 0.233 | relative viability (NCI-H2126; first compound 0.002 µM): 0.72 | relative viability (NCI-H2126; first compound 0.006325 µM): 0.651 | relative viability (NCI-H2126; first compound 0.02 µM): 0.533 | relative viability (NCI-H2126; first compound 0.06325 µM): 0.226 | relative viability (NCI-H2126; first compound 0.2 µM): 0.223 | relative viability (NCI-H2228; first compound 0.002 µM): 0.576 | relative viability (NCI-H2228; first compound 0.006325 µM): 0.459 | relative viability (NCI-H2228; first compound 0.02 µM): 0.116 | relative viability (NCI-H2228; first compound 0.06325 µM): 0.109 | relative viability (NCI-H2228; first compound 0.2 µM): 0.0698 | relative viability (NCI-H2342; first compound 0.002 µM): 0.623 | relative viability (NCI-H2342; first compound 0.006325 µM): 0.586 | relative viability (NCI-H2342; first compound 0.02 µM): 0.545 | relative viability (NCI-H2342; first compound 0.06325 µM): 0.569 | relative viability (NCI-H2342; first compound 0.2 µM): 0.397 | relative viability (NCI-H23; first compound 0.002 µM): 0.503 | relative viability (NCI-H23; first compound 0.006325 µM): 0.508 | relative viability (NCI-H23; first compound 0.02 µM): 0.322 | relative viability (NCI-H23; first compound 0.06325 µM): 0.133 | relative viability (NCI-H23; first compound 0.2 µM): 0.136 | relative viability (NCI-H2405; first compound 0.002 µM): 0.648 | relative viability (NCI-H2405; first compound 0.006325 µM): 0.545 | relative viability (NCI-H2405; first compound 0.02 µM): 0.532 | relative viability (NCI-H2405; first compound 0.06325 µM): 0.196 | relative viability (NCI-H2405; first compound 0.2 µM): 0.192 | relative viability (NCI-H322M; first compound 0.002 µM): 0.564 | relative viability (NCI-H322M; first compound 0.006325 µM): 0.503 | relative viability (NCI-H322M; first compound 0.02 µM): 0.467 | relative viability (NCI-H322M; first compound 0.06325 µM): 0.278 | relative viability (NCI-H322M; first compound 0.2 µM): 0.312 | relative viability (NCI-H460; first compound 0.002 µM): 0.702 | relative viability (NCI-H460; first compound 0.006325 µM): 0.586 | relative viability (NCI-H460; first compound 0.02 µM): 0.0482 | relative viability (NCI-H460; first compound 0.06325 µM): 0.0153 | relative viability (NCI-H460; first compound 0.2 µM): 0.0165 | relative viability (NCI-H647; first compound 0.002 µM): 0.717 | relative viability (NCI-H647; first compound 0.006325 µM): 0.626 | relative viability (NCI-H647; first compound 0.02 µM): 0.595 | relative viability (NCI-H647; first compound 0.06325 µM): 0.0814 | relative viability (NCI-H647; first compound 0.2 µM): 0.0562 | relative viability (NCI-H650; first compound 0.002 µM): 0.477 | relative viability (NCI-H650; first compound 0.006325 µM): 0.545 | relative viability (NCI-H650; first compound 0.02 µM): 0.378 | relative viability (NCI-H650; first compound 0.06325 µM): 0.368 | relative viability (NCI-H650; first compound 0.2 µM): 0.109 | relative viability (NCI-H661; first compound 0.002 µM): 0.802 | relative viability (NCI-H661; first compound 0.006325 µM): 0.672 | relative viability (NCI-H661; first compound 0.02 µM): 0.58 | relative viability (NCI-H661; first compound 0.06325 µM): 0.199 | relative viability (NCI-H661; first compound 0.2 µM): 0.226 | relative viability (NCI-H838; first compound 0.002 µM): 0.391 | relative viability (NCI-H838; first compound 0.006325 µM): 0.375 | relative viability (NCI-H838; first compound 0.02 µM): 0.275 | relative viability (NCI-H838; first compound 0.06325 µM): 0.134 | relative viability (NCI-H838; first compound 0.2 µM): 0.149 | relative viability (PC-14; first compound 0.002 µM): 0.918 | relative viability (PC-14; first compound 0.006325 µM): 0.598 | relative viability (PC-14; first compound 0.02 µM): 0.11 | relative viability (PC-14; first compound 0.06325 µM): 0.0462 | relative viability (PC-14; first compound 0.2 µM): 0.0587
